According to ChEMBL document CHEMBL1150107, “Isolation and in vitro antiplasmodial activities of alkaloids from Teclea trichocarpa: in vivo antimalarial activity and X-ray crystal structure of normelicopicine” (J Nat Prod, 2002):

What was measured:
Plasmodium falciparum [1] = test: Antiplasmodial activity against chloroquine-sensitive Plasmodium falciparum HB3 after 48 hrs by LDH reporter activity; type: functional, organism-based; conditions: HB3, 48 h
Plasmodium falciparum [2] = test: Antiplasmodial activity against chloroquine-resistant Plasmodium falciparum K1 after 48 hrs by LDH activity; type: functional, organism-based; conditions: K1, 48 h
Plasmodium berghei [3] = test: Antimalarial activity as reduced parasitaemia at day 5 against Plasmodium berghei ANKA infected in BALB/c mice (Mus musculus) at 10 mg/kg/day intraperitoneal dose over 4 days; type: functional; parameters: scale not given: the % may be the effect or the level left
Plasmodium berghei [4] = test: Antimalarial activity as reduced parasitaemia at day 5 against Plasmodium berghei ANKA infected BALB/c mice (Mus musculus) at 25 mg/kg/day intraperitoneal dose over 4 days; type: functional; parameters: scale not given: the % may be the effect or the level left
KB = test: Cytotoxicity against human KB cells by alamar blue assay; type: cell-based
[5] = Selectivity index, ratio of IC50 for human KB cells to IC50 for chloroquine-sensitive Plasmodium falciparum HB3; type: toxicity, cell-based; conditions: read-out: Ratio IC50
[6] = Selectivity index, ratio of IC50 for human KB cells to IC50 for chloroquine-resistant Plasmodium falciparum K1; type: toxicity, cell-based; conditions: read-out: Ratio IC50

In the case of COc1ccc2c(=O)c3c(OC)c4c(cc3n(C)c2c1OC)OCO4, the IC50 (Plasmodium falciparum [1]) is reported as 32.3 µM and the IC50 (Plasmodium falciparum [2]) is reported as 56.9 µM.
Work on COc1cc2c(c(O)c1OC)c(=O)c1ccccc1n2C [ARBORININE] yielded an IC50 (Plasmodium falciparum [1]) of 3.85 µM and an IC50 (Plasmodium falciparum [2]) of 9.34 µM.
In the case of CCN(CC)CCCC(C)Nc1ccnc2cc(Cl)ccc12.O=P(O)(O)O.O=P(O)(O)O (stereo not drawn) [CHLOROQUINE PHOSPHATE], the Activity (Plasmodium berghei [3]) is reported as 100%.
COc1c(OC)c(OC)c2c(c1OC)c(=O)c1ccccc1n2C [MELICOPICINE] gave an IC50 (Plasmodium falciparum [1]) of over 100 µM and an IC50 (Plasmodium falciparum [2]) of over 100 µM.
Work on COc1c(OC)c(OC)c2c(c1O)c(=O)c1ccccc1n2C [NORMELICOPICINE] yielded an IC50 (Plasmodium falciparum [1]) of 8.25 µM, an IC50 (Plasmodium falciparum [2]) of 14.7 µM and an Activity (Plasmodium berghei [4]) of 32.1%. It also gave an IC50 (KB) of over 328000 nM, a selectivity ratio [5] of 22 and a selectivity ratio [6] of 40.
Compound COc1cc([C@@H]2c3cc4c(cc3[C@H](O)[C@H]3COC(=O)[C@H]23)OCO4)cc(OC)c1OC [PODOFILOX] has an IC50 (KB) of 4.8 nM.
With COc1ccc2c(OC)c3ccoc3nc2c1OC [SKIMMIANINE] the IC50 (Plasmodium falciparum [1]) was 47.5 µM and the IC50 (Plasmodium falciparum [2]) was 59 µM.
For COc1c2c(cc3c1c(=O)c1cccc(OC)c1n3C)OCO2 [TECLEANTHINE], the IC50 (Plasmodium falciparum [1]) was 23.2 µM and the IC50 (Plasmodium falciparum [2]) was 53 µM.
